Test: recombinant barcode read abundance after kanamycin selection (control-corrected) (log10(CPM+1)); higher = more efficient recombination; sequences stand for … in AGTGCAGAGAAAATCGGCCAGTTTTCTCTGCCTGCAGTCCGCATGCCGT…AGATTTATGCAGCGGACTGCCTTTCTCCCAAAGTGATAAACCGGACAGTATCATGGACCGGTTTTCCCGGTAATCCGTATTTGCAAGGTTGGTTTCACT; site = the 11-nt target
Outline: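 Recombination efficiency in this pooled E. coli screen uses counts per million of barcodes at recombinant junctions, averaged and corrected against the control. The reported form is log10(CPM+1). Two replicates were plated on chloramphenicol/ampicillin LB agar as control and two on chloramphenicol/ampicillin/kanamycin with 0.1 mM IPTG.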
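Note: IS621 recombinase and bridge RNA in Escherichia coli cells.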

**Q.** With “GGAACGACTTGGGTTCTAACCTGTTGCGT (site GGAACGACTAC)” as the sequence, how does the “recombinant barcode read abundance (log10)” value read?
**A.** 1.93

**Q.** Which “recombinant barcode read abundance (log10)” value does the source give for “GGACACTCTTGGGTTCTAACCTGTTGCCT (site GGACACTCTAG)” here?
**A.** 2.75

**Q.** Which “recombinant barcode read abundance (log10)” value does the source give for “GGACACTCTTGGGTTCTAACCTGTTGCCT (site GGACACTCTTA)” here?
**A.** 1.09

**Q.** For “GGACATTCTTGGGTTCTAACCTGTTGCAT (site GGACATTCTAT)”, which “recombinant barcode read abundance (log10)” value is on record?
**A.** 0.872

**Q.** With “GGACATTCTTGGGTTCTAACCTGTTGCAT (site GTCCATTCTAT)” as the sequence, how does the “recombinant barcode read abundance (log10)” value read?
**A.** 0.0875

**Q.** For “GGACCTACTTGGGTTCTAACCTGTTGCCA (site GAACCTACTTG)”, which “recombinant barcode read abundance (log10)” value is on record?
**A.** 0.0276

**Q.** For “GGACCTACTTGGGTTCTAACCTGTTGCCA (site GGACCTACTTG)”, which “recombinant barcode read abundance (log10)” value is on record?
**A.** 0.483

**Q.** With “GGACGCTCTTGGGTTCTAACCTGTTGCCT (site GGACGCTCTAG)” as the sequence, how does the “recombinant barcode read abundance (log10)” value read?
**A.** 1.83

**Q.** For “GGACGCTCTTGGGTTCTAACCTGTTGCCT (site GGTCGCTCTAG)”, which “recombinant barcode read abundance (log10)” value is on record?
**A.** 0.113

**Q.** Which “recombinant barcode read abundance (log10)” value does the source give for “GGACGGCCTTGGGTTCTAACCTGTTGCGT (site CTACGGCCTAC)” here?
**A.** 0.152

**Q.** For “GGACGGCCTTGGGTTCTAACCTGTTGCGT (site GGACGGCCTAC)”, which “recombinant barcode read abundance (log10)” value is on record?
**A.** 2.53

**Q.** With “GGACGGGCTTGGGTTCTAACCTGTTGCAG (site GAACGGGCTCC)” as the sequence, how does the “recombinant barcode read abundance (log10)” value read?
**A.** 0.0984

**Q.** With “GGACGGGCTTGGGTTCTAACCTGTTGCAG (site GGACGGGCTCT)” as the sequence, how does the “recombinant barcode read abundance (log10)” value read?
**A.** 2.48

**Q.** Which “recombinant barcode read abundance (log10)” value does the source give for “GGAGACGCTTGGGTTCTAACCTGTTGCCT (site GGAGAAGCTAG)” here?
**A.** 0.344

**Q.** With “GGAGACGCTTGGGTTCTAACCTGTTGCCT (site GGAGACGCTAG)” as the sequence, how does the “recombinant barcode read abundance (log10)” value read?
**A.** 1.32

**Q.** For “GGAGACGCTTGGGTTCTAACCTGTTGCCT (site GGAGAGGCTAG)”, which “recombinant barcode read abundance (log10)” value is on record?
**A.** 0.676

**Q.** With “GGAGACGCTTGGGTTCTAACCTGTTGCCT (site GGAGATGCTAG)” as the sequence, how does the “recombinant barcode read abundance (log10)” value read?
**A.** 0.235

**Q.** Which “recombinant barcode read abundance (log10)” value does the source give for “GGAGCACCTTGGGTTCTAACCTGTTGCCT (site GGAGCACCTAG)” here?
**A.** 2.38

**Q.** For “GGAGCACCTTGGGTTCTAACCTGTTGCCT (site GGAGCAGCTAG)”, which “recombinant barcode read abundance (log10)” value is on record?
**A.** 0.0718

**Q.** For “GGAGCGTCTTGGGTTCTAACCTGTTGCGT (site GGAGCGTCTAC)”, which “recombinant barcode read abundance (log10)” value is on record?
**A.** 1.61

**Q.** With “GGAGCGTCTTGGGTTCTAACCTGTTGCGT (site GGCGCGTCTAT)” as the sequence, how does the “recombinant barcode read abundance (log10)” value read?
**A.** 0.299

**Q.** Which “recombinant barcode read abundance (log10)” value does the source give for “GGAGGGGCTTGGGTTCTAACCTGTTGCCT (site GGAGGGGCTAG)” here?
**A.** 1.75

**Q.** With “GGAGGGGCTTGGGTTCTAACCTGTTGCCT (site TGAGGTGCTAG)” as the sequence, how does the “recombinant barcode read abundance (log10)” value read?
**A.** 0.0107

**Q.** With “GGAGTGACTTGGGTTCTAACCTGTTGCTT (site GGAGTGACTAA)” as the sequence, how does the “recombinant barcode read abundance (log10)” value read?
**A.** 0.979

**Q.** With “GGAGTGACTTGGGTTCTAACCTGTTGCTT (site GGAGTGACTTA)” as the sequence, how does the “recombinant barcode read abundance (log10)” value read?
**A.** 0.176

**Q.** For “GGATAGACTTGGGTTCTAACCTGTTGCGT (site GGATACACTAC)”, which “recombinant barcode read abundance (log10)” value is on record?
**A.** 0.107

**Q.** Which “recombinant barcode read abundance (log10)” value does the source give for “GGATAGACTTGGGTTCTAACCTGTTGCGT (site GGATAGACTAC)” here?
**A.** 1.95

**Q.** For “GGATAGCCTTGGGTTCTAACCTGTTGCCT (site AGATAGCCTAG)”, which “recombinant barcode read abundance (log10)” value is on record?
**A.** 0.902

**Q.** Which “recombinant barcode read abundance (log10)” value does the source give for “GGATAGCCTTGGGTTCTAACCTGTTGCCT (site CGATAGCCTAG)” here?
**A.** 0.0205

**Q.** With “GGATAGCCTTGGGTTCTAACCTGTTGCCT (site GGATAGCCTAG)” as the sequence, how does the “recombinant barcode read abundance (log10)” value read?
**A.** 1.71

**Q.** For “GGATAGCCTTGGGTTCTAACCTGTTGCCT (site TGATAGCCTAG)”, which “recombinant barcode read abundance (log10)” value is on record?
**A.** 0.239

**Q.** With “GGATATCCTTGGGTTCTAACCTGTTGCCT (site GGATATCCTAG)” as the sequence, how does the “recombinant barcode read abundance (log10)” value read?
**A.** 0.645

**Q.** For “GGATATCCTTGGGTTCTAACCTGTTGCCT (site TGAAATCCTAG)”, which “recombinant barcode read abundance (log10)” value is on record?
**A.** 0.114

**Q.** With “GGATCGTCTTGGGTTCTAACCTGTTGCCT (site GGATCGTCTAG)” as the sequence, how does the “recombinant barcode read abundance (log10)” value read?
**A.** 1.44

**Q.** For “GGATCGTCTTGGGTTCTAACCTGTTGCCT (site GGTTCCTCTAG)”, which “recombinant barcode read abundance (log10)” value is on record?
**A.** 0.0567

**Q.** Which “recombinant barcode read abundance (log10)” value does the source give for “GGATTCTCTTGGGTTCTAACCTGTTGCCT (site GGACTCACTAG)” here?
**A.** 0.0575

**Q.** With “GGATTCTCTTGGGTTCTAACCTGTTGCCT (site GGATTCTCTAG)” as the sequence, how does the “recombinant barcode read abundance (log10)” value read?
**A.** 1.83

**Q.** For “GGCAAGGCTTGGGTTCTAACCTGTTGCCT (site ACGGGTCCTCT)”, which “recombinant barcode read abundance (log10)” value is on record?
**A.** 0.417

**Q.** For “GGCAAGGCTTGGGTTCTAACCTGTTGCCT (site GGCAAGGCTAG)”, which “recombinant barcode read abundance (log10)” value is on record?
**A.** 0.0617

**Q.** With “GGCACCACTTGGGTTCTAACCTGTTGCGT (site GGCACCACTAC)” as the sequence, how does the “recombinant barcode read abundance (log10)” value read?
**A.** 1.58

**Q.** With “GGCACCACTTGGGTTCTAACCTGTTGCGT (site GGCACTACTAC)” as the sequence, how does the “recombinant barcode read abundance (log10)” value read?
**A.** 0.108

**Q.** For “GGCACTACTTGGGTTCTAACCTGTTGCGT (site GGCACCACTAC)”, which “recombinant barcode read abundance (log10)” value is on record?
**A.** 0.661

**Q.** With “GGCACTACTTGGGTTCTAACCTGTTGCGT (site GGCACTACTAC)” as the sequence, how does the “recombinant barcode read abundance (log10)” value read?
**A.** 0.28

Source: the supplement of paper PMC11208160
